Experimental data taken from patent US20180072675A1, “ANTIMICROBIAL PYRIDINOHYDRAZIDE AND HYDRAZOMETHYLPYRIDINE-BASED AGENTS” (Board of Supervisors of Louisiana State University and …, priority 2015, published 2018).
In brackets after ≈: the same amount, converted by molar mass. Entries after “also recorded” stand apart in the source; their conditions may differ. Read-outs that look alike come from different tables or passages of the source. Blank lines part the entries; values can stand above or below the molecule they belong to.

Assays:
Vero (kidney) cells = assay: Mammalian cell toxicity, Promega CellTiter 96, kidney cells; format: cell-based; settings: 24 h
Protocol: (§1) Cytotoxicity was determined using non-cancerous Vero cells (kidney-african green monkey) and liver cells (Hep-2G) in accordance with Promega CellTiter 96 Non-Radioactive Cell Proliferation Assay (cat # G4000). Compounds were diluted in media and all assays were done in triplicate. Average values are presented, with ±SD. Cells were incubated in the presence of the compounds for 24 h at 37° C. and 5% CO2. Tetrazolium dye solution was added to each well and allowed to incubate for 1-4 h. Solubilization/Stop solution was added and allowed to sit at room temperature for 1 h. Formazan product was scored spectrophotometrically with an automatic plate reader set at 570 nm. Positive control wells for cell death were briefly treated with 0.1% saponin, immediately prior to the addition of dye solution. Wells containing 1% DMSO and no drug were used as a negative control and the average absorbance at 570 nm were set to 100%. The percent of cells viable were calculated as a ratio between the average absorption at 570 nm of the drug containing wells/average absorption at 570 nm of the control (no drug). Ratios were multiplied by 100 to give the values as a percentage as expressed on the y-axis.
(§2) Cytotoxicity studies were performed in accordance with Promega CellTiter 96 Non-RadioactivCell Proliferation Assay (cat #G4000). All cytotoxicity studies used a negative control (wells of either kidney or liver cells containing 1% DMSO but lacking the analog), a positive control (wells of either kidney or liver cells treated with the known cytotoxic agent, saponin) and the serial dilutions of the novel analogs. All control (negative) wells were normalized to 100% viable cells to accurately show the percentage of either liver or kidney cells that remained alive and viable following either overnight incubation with the analogs or 5-minute treatment with 0.1% saponin.

Candida strain TW17 = assay: Time-kill assay; format: cell-based, Candida albicans; settings: for Cidal vs Static: four times the MIC for TW17, 48 h; for colonies observed in time-kill assay: after 24 h
Protocol: FIG. 9 illustrates time-kill assays, for representative analogs that were active against the azole-resistant TW17, to determine the cidal or static nature of the analog tested. 100 μl of each sample was spread onto YM agar plates with a sterile bent spreading rod. Plates were incubated at 35° C. overnight and colonies were then counted on each plate.
One of the objectives of this study was to determine the cidal or static nature of the analogs that were active against such as TW17, the azole-resistant clinical isolate. Azoles affect Candida spp. by inhibiting ergosterol biosynthesis, and ultimately prevent their reproduction. This effect has led to the classification of azoles as fungistats. Determining the fungistatic or fungicidal nature of the synthesized compounds of the present disclosure allows a comparison to azoles, in addition to improving the understanding of how the structural motifs might lend toward an alternate mechanism of action. Therefore, time-kill assays were performed using the representative analogs that were active against the azole-resistant TW17 at concentrations at or below 8 μg/mL.
Solid drugs were dissolved in DMSO to a concentration of 10 mg/ml. This stock solution was then further diluted in water to the desired experimental concentration, determined to be four times that of the MIC for the Candida strain TW17 (as reported in the Tables).
Individual colonies of TW17 were suspended in 5 ml of sterile water and adjusted to achieve a McFarland reading between 0.08 and 0.12. The inoculum was then further diluted in sterile water at a ratio of 1:100. Three […] tissue culture tubes were prepared by combining 2.5 ml of above diluted inoculum, 21.7 ml of HEPES buffered RPMI-1640 media, and 800 μl of experimental drug dilution. A “Growth Control” tube was prepared by combining 2.5 ml of inoculum, 21.7 HEPES buffered RPMI-1640 media, and 800 μl of water-DMSO solution equal to the DMSO concentration of the experimental drug dilution. A “Sterile Control” tube was prepared by combining 24.2 ml of HEPES-buffered RPMI-1640 media and 800 μl of water-DMSO solution as in the “Growth Control”. All tubes were incubated for 48 hours at 35° C., 50 rpm. 500 μl samples were taken from the tubes at time points of predetermined intervals during this incubation.
Time points for the “Kill-Curve” and “Growth Control” tubes were taken at 0, 1, 2, 4, 6, 8, 24, and 48 h after the start of incubation. Time points for “Sterile Control” were taken at 0 and 48 hours. Each time point sample was serially diluted 1:10 in sterile 0.9% NaCl solution up to 5 times. 100 μl of each sample was spread onto YM agar plates with a sterile bent spreading rod. Plates were incubated at 35° C. overnight and colonies were then counted on each plate. Colonies on plates from diluted time points were used to estimate uncountable undiluted samples. The number of colonies in undiluted samples was estimated to be 10^n times greater than the diluted sample, where n was the number of dilutions made.

Hep G2 (liver) cells = assay: Mammalian cell toxicity, Promega CellTiter 96, liver cells; format: cell-based; settings: 24 h
Protocol: as §1, §2

[1] = tested on: C. albicans clinical isolate 17 (TW17); assay: MIC80 fungal growth inhibition, clinical isolate TW17; format: cell-based, Candida albicans; settings: for MIC80: Candida albicans, read-out: MIC80 TW17
Protocol: (§3) The antifungal activity of the pyridinohydrazide and hydrazomethylpyridine derivatives described in the s were evaluated in vitro using Candida albicans (ATCC Accession No. 10231) and Candida glabrata (ATCC Accession No. 48435). In addition, the compounds were evaluated for activity against two previously-described clinical isolates of C. albicans known to have developed azole-resistance. These isolates were obtained over a two year period from a single AIDS patient and the development of the azole-resistance mechanisms have been extensively characterized (White T C. Antimicrob. Agents Chemother. (1997) 41: 1482-1487). MIC assays were performed on the clinical isolates 1 and 17 (annotated TW1 and TW17, respectively), where isolate 1 was used as an azole-susceptible control and isolate 17 was considered azole-resistant. All assays were done in accordance with NCCLS reference documents (Clinical Laboratory and Standards Institute. Reference method for Broth Dilution Antifungal Susceptibility Testing of Yeasts: Approved Standard. M27-A3 2010; 28). The results of these screenings are summarized in Tables 1-9 (Examples 20-27) as the minimum concentrations that inhibited more than 80% of fungal growth (MIC80) as compared to positive controls containing 1% DMSO. Assays were performed in HEPES-buffered RPMI-1640 media. All MIC screens used a visual scoring method as opposed to spectroscopic analysis, due to the altered absorbance spectra of many of the compounds.

[2] = tested on: Candida glabrata (ATCC Accession No. 48435); assay: MIC80 fungal growth inhibition, C. glabrata ATCC 48435; format: cell-based; settings: for MIC80: Nakaseomyces glabratus
Protocol: as §3

Candida spp. = assay: MIC studies, statements pooled over several isolates; format: cell-based, Candida albicans, Candida glabrata; settings: for antifungal activity (in words): overall over the isolates tested
Protocol: as §3

[3] = Azole-resistant, >80% growth inhibition, visual scoring
[4] = ATCC48435, Azole-resistant, >80% growth inhibition, visual scoring, read-out: MIC80 C. glabrata ATCC No. 48435

SMILES: O=C(NN=Cc1cc([N+](=O)[O-])ccc1O)c1cccnc1 [AR12]
cell toxicity (Vero (kidney) cells; 5 times the MIC): elevated toxicity
Cidal vs Static (Candida strain TW17): Static
MIC80 TW17 [1, 3]: 8 µg/mL (≈ 27.9 µM)
activity against azole-resistant isolates (in words) (Candida spp.; azole-resistant isolates): less active

SMILES: O=C(NN=Cc1cc([N+](=O)[O-])ccc1O)c1ccncc1 [AR18]
cell toxicity (Vero (kidney) cells; 100× MIC): minimal cytotoxicity
cell toxicity (Vero (kidney) cells; through 10× MIC): not toxic
Cidal vs Static (Candida strain TW17): Static
cell toxicity (Hep G2 (liver) cells; 100× MIC): minimal cytotoxicity
cell toxicity (Hep G2 (liver) cells; through 10× MIC): not toxic
MIC80 TW17 [1, 3]: 8 µg/mL (≈ 27.9 µM)
MIC80 C. glabrata ATCC No. 48435 [2, 3]: 31 µg/mL (≈ 108 µM)
antifungal activity (in words) (Candida spp.): most potent

SMILES: C(=N\Nc1ccccc1)/c1ccncc1 [AR48]
cell toxicity (Vero (kidney) cells; 100× MIC): toxic
cell toxicity (Vero (kidney) cells; through 10× MIC): no cell toxicity
colonies observed in time-kill assay (Candida strain TW17): no observed colonies
Cidal vs Static (Candida strain TW17): fungicidal; also recorded: Cidal
cell toxicity (Hep G2 (liver) cells; 100× MIC): toxic
cell toxicity (Hep G2 (liver) cells; through 10× MIC): no cell toxicity
MIC80 [1]: 8 µg/mL (≈ 40.6 µM)
MIC80 ([2]; ATCC48435, read-out: MIC80 C. glabrata ATCC No. 48435): 4 µg/mL (≈ 20.3 µM)
antifungal activity (in words) (Candida spp.): moderate antifungal activity

Further lines, with some results ahead:

MIC80 [1, 3]: 8 µg/mL (≈ 31.3 µM)
MIC80 [2, 4]: 2 µg/mL (≈ 7.83 µM)
SMILES: Cc1ccc(O)c(/C=N/NC(=O)c2ccccn2)c1 [AR2, (E)-N′-(2-Hydroxy-5-methylbenzylidene)picolinohydrazide]
cell toxicity (Vero (kidney) cells; 100× MIC): minimal toxicity
Cidal vs Static (Candida strain TW17): Static
cell toxicity (Hep G2 (liver) cells; 100× MIC): minimal toxicity

MIC80 [1, 3]: 8 µg/mL (≈ 23.8 µM)
MIC80 [2, 4]: 4 µg/mL (≈ 11.9 µM)
SMILES: O=C(N/N=C/c1cc(Br)ccc1O)c1ccc[n+]([O-])c1 [AR27]
cell toxicity (Vero (kidney) cells; 5 times the MIC): cytotoxic
Cidal vs Static (Candida strain TW17): fungistatic; also recorded: Static
cell toxicity (Hep G2 (liver) cells; 5× MIC): cytotoxic

MIC80 [1, 3]: 8 µg/mL (≈ 40.6 µM)
MIC80 [2, 4]: 16 µg/mL (≈ 81.1 µM)
SMILES: C(=N\Nc1ccccc1)/c1cccnc1 [AR44]
cell toxicity (Vero (kidney) cells; 100× MIC): toxic
cell toxicity (Vero (kidney) cells; through 10× MIC): no cell toxicity
colonies observed in time-kill assay (Candida strain TW17): no observed colonies
Cidal vs Static (Candida strain TW17): fungicidal; also recorded: Cidal
cell toxicity (Hep G2 (liver) cells; 100× MIC): toxic
cell toxicity (Hep G2 (liver) cells; through 10× MIC): no cell toxicity
antifungal activity (in words) (Candida spp.): moderate antifungal activity
